Data from PubChem BioAssay AID1963835 (Molecular Pharmacology Branch, DTP, NCI, 2024).
Where “and” joins values, the source holds several entries; their conditions need not be identical. Equal entries are not always repeated.

System: 699152-130-R-J1-PDC complex spheroid viability
Test: Anticancer human tumor 699152-130-R-J1-PDC patient-derived pancreatic carcinoma cell line growth inhibition [POLQ]
Conditions: for viability, T/C: stronger effect = lower value
Description: Multicellular complex tumor spheroid response to Polymerase (POL) inhibitors (novobiocin, ART-558, RP6685) in combination with a variety of drugs and investigational agents in selected tumor cell lines
The POL inhibitors (novobiocin, ART-558, and RP6685) were evaluated both individually and in combination with standard of care and investigational anticancer small molecules within a complex spheroid model of solid tumors. . Complex spheroids include a stromal component modeled by human endothelial cells (HUVEC) and fibroblasts modeled by human mesenchymal stem cells (MSCs). The concentration ranges selected for each drug and investigational agent were based upon clinically achievable concentrations if the clinical Cmax of the agent was known.
Compounds. The drugs and investigational agents: novobiocin (NSC847541), ART-558 (NSC835418), RP-6685 (NSC848927), peposertib (NSC802822), ceralasertib (NSC780249), elimusertib (NSC800525), camonsertib (NSC841442), AZD-1390 (NSC803789), olaparib (NSC753686), talazoparib (NSC767125), rucaparib (NSC756644), sotorasib (NSC818433), MRTX-1133 (NSC836407), SN-38 (NSC673596), topotecan (NSC609699), epotoside (NSC141540), doxorubicin (NSC123127), gemcitabine (NSC613327), 5-fluorouracil (NSC19893), paclitaxel (NSC125973), vemurafenib (NSC761431), MSA-2 (NSC828583), SN-011 (NSC837082), adavosertib (NSC754352), prexasertib (NSC758257), carboplatin (NSC241240) and oxaliplatin (NSC266046), were obtained from the National Cancer Institute (NCI) Developmental Therapeutics Program Chemical Repository (21). The FDA-approved anticancer drug set is available from the Developmental Therapeutics Program at https://dtp.cancer.gov/organization/dscb/obtaining/. […] The stock solutions were prepared in dimethyl sulfoxide (DMSO, Sigma-Aldrich, St. Louis, MO, cat. D2650), except for the platinum compounds which were prepared in saline (Quality Biological, Gaithersburg, MD, cat. 114-055-101), at 800-fold the tested concentration and stored at -70 degrees C prior to their use. All drugs and investigational agents were tested over a range starting from a high concentration at or near the clinical Cmax and decreasing in half-log increments. If the clinical Cmax for an agent had not been determined, the highest concentration tested was 10 microM, except for SN-38, which was tested at a high concentration of 1 microM.
Cell Culture. All cells were maintained in an incubator at 37 degrees C and 5% CO2 with 95% humidity. The PDC lines were cultured according to standard operating procedures established by the NCI PDMR (https://pdmr.cancer.gov). Table 3 of the manuscript, lists the cell lines along with the number of the three cell types plated to form the mct-spheroids and media for tumor cell growth. After thawing, all PDC lines, except 997537-175-T-J1-PDC and 415267-285-R-J2-PDC, were cultured in Matrigel-coated flasks prepared with a working solution of 1X Ham's F-12 nutrient mix, without supplementation (Thermo Fisher Scientific, cat. 11765054), 100 U/mL penicillin-streptomycin (Thermo Fisher Scientific, cat. 15140122), and 2.5% Matrigel (Corning Inc., Corning, NY, cat. 354248) for the first three passages. The two PDC lines 997537-175-T-J1-PDC and 415267-285-R-J2-PDC were cultured on uncoated flasks. The 857933-349-R-J2-PDC line was cultured in 6C/Colon 1B media containing advanced DMEM/F-12 (Thermo Fisher Scientific, cat. 12634028), 10 mM HEPES (Thermo Fisher Scientific, cat. 15630080), 1X GlutaMAX supplement (Thermo Fisher Scientific, cat. 35050061), 0.1 mg/mL primocin (InvivoGen, San Diego, CA, cat. ant-pm-2), 10% defined fetal bovine serum, heat inactivated (HyClone Laboratories Inc., Logan, UT, cat. SH30070.03HI), 50% L-WRN conditioned media (ATCC, cat. CRL-3276), 1.25 mM N-Acetyl-L-cysteine (Sigma-Aldrich, cat. A9165), 10 mM nicotinamide (Sigma-Aldrich, cat. N0636), 1X B-27 supplement (Thermo Fisher Scientific, cat. 17504044), 1X N-2 supplement (Thermo Fisher Scientific, cat. […]

[1] = curve of first compound, second compound 0.0316 µM
[2] = curve of first compound, second compound 0.1 µM
[3] = curve of first compound, second compound 0.316 µM
[4] = curve of first compound, second compound 1 µM
[5] = curve of first compound, second compound 3.16 µM
[6] = curve of first compound, second compound 10 µM
[7] = second compound 0.0316 µM, first compound 0.0316 µM
[8] = second compound 0.0316 µM, first compound 0.1 µM
[9] = second compound 0.1 µM, first compound 0.0316 µM
[10] = second compound 0.1 µM, first compound 0.1 µM
[11] = second compound 0.316 µM, first compound 0.0316 µM
[12] = second compound 0.316 µM, first compound 0.1 µM
[13] = second compound 1 µM, first compound 0.0316 µM
[14] = second compound 1 µM, first compound 0.1 µM
[15] = second compound 3.16 µM, first compound 0.0316 µM
[16] = second compound 3.16 µM, first compound 0.1 µM
[17] = second compound 10 µM, first compound 0.0316 µM
[18] = second compound 10 µM, first compound 0.1 µM
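Note: spheroids exposed to agents for 7 days before viability reading.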
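Throughout, for viability, T/C: percent of DMSO vehicle control viability so 100% = vehicle and 0% = no viable signal.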

CC[C@@]1(O)C(=O)OCc2c1cc1n(c2=O)Cc2cc3c(CN(C)C)c(O)ccc3nc2-1 + Cc1cccc(N(C)C(=O)C2C(O)CCN2c2nc(C)cc(C(F)(F)F)c2C#N)c1 was tested, and the IC50 [1] was greater than 100 nM, the IC50 [2] was greater than 100 nM and the IC50 [3] was greater than 100 nM. For the same compound, the IC50 [4] was greater than 100 nM, the IC50 [5] was greater than 100 nM and the IC50 [6] was greater than 100 nM. It also gave a viability, T/C (second compound 0.0316 µM, first compound 0.000316 µM) of 104%, a viability, T/C (second compound 0.0316 µM, first compound 0.001 µM) of 118% and a viability, T/C (second compound 0.0316 µM, first compound 0.00316 µM) of 95.4%. For the same compound, the viability, T/C (second compound 0.0316 µM, first compound 0.01 µM) was 90.2%, the viability, T/C [7] was 81.3% and the viability, T/C [8] was 67.3%. The viability, T/C (second compound 0.1 µM, first compound 0.000316 µM) was 103%, the viability, T/C (second compound 0.1 µM, first compound 0.001 µM) was 103% and the viability, T/C (second compound 0.1 µM, first compound 0.00316 µM) was 91%. The viability, T/C (second compound 0.1 µM, first compound 0.01 µM) was 112%, the viability, T/C [9] was 82.5% and the viability, T/C [10] was 58.2%. For the same compound, the viability, T/C (second compound 0.316 µM, first compound 0.000316 µM) was 101%, the viability, T/C (second compound 0.316 µM, first compound 0.001 µM) was 99.2% and the viability, T/C (second compound 0.316 µM, first compound 0.00316 µM) was 116%. It also gave a viability, T/C (second compound 0.316 µM, first compound 0.01 µM) of 93.6%, a viability, T/C [11] of 76.4% and a viability, T/C [12] of 63.2%. It also gave a viability, T/C (second compound 1 µM, first compound 0.000316 µM) of 111%, a viability, T/C (second compound 1 µM, first compound 0.001 µM) of 97.5% and a viability, T/C (second compound 1 µM, first compound 0.00316 µM) of 111%. The viability, T/C (second compound 1 µM, first compound 0.01 µM) was 99.9%, the viability, T/C [13] was 81.2% and the viability, T/C [14] was 58.7%. For the same compound, the viability, T/C (second compound 3.16 µM, first compound 0.000316 µM) was 99.7%, the viability, T/C (second compound 3.16 µM, first compound 0.001 µM) was 106% and the viability, T/C (second compound 3.16 µM, first compound 0.00316 µM) was 112%. The viability, T/C (second compound 3.16 µM, first compound 0.01 µM) was 97.5%, the viability, T/C [15] was 80.5% and the viability, T/C [16] was 64.1%. For the same compound, the viability, T/C (second compound 10 µM, first compound 0.000316 µM) was 102%, the viability, T/C (second compound 10 µM, first compound 0.001 µM) was 105% and the viability, T/C (second compound 10 µM, first compound 0.00316 µM) was 95.6%. The viability, T/C (second compound 10 µM, first compound 0.01 µM) was 91.8%, the viability, T/C [17] was 85.5% and the viability, T/C [18] was 68.8%.

COc1ccc([C@@H](O)c2cc(-c3ncnc4cc(N5CCOCC5)ccc34)c(F)cc2Cl)nn1 was tested, and the viability, T/C (compound 0.0316 µM) was 111% and 87.9% and 88.4%, the viability, T/C (compound 0.1 µM) was 96.7% and 92.9% and 106% and the viability, T/C (compound 0.316 µM) was 94.5% and 88.7% and 79.7%. The viability, T/C (compound 1 µM) was 84.6% and 77.3% and 75%, the viability, T/C (compound 3.16 µM) was 49.6% and 50.5% and 60.4% and the viability, T/C (compound 10 µM) was 23.9% and 19.9% and 19.4%. The IC50 (curve of compound) was 3410 nM and 3190 nM and 3960 nM.

COc1cccc2c1C(=O)c1c(O)c3c(c(O)c1C2=O)CC(O)(C(=O)CO)CC3OC1CC(N)C(O)C(C)O1 (stereo not drawn) was tested, and the viability, T/C (compound 0.0316 µM) was 72.5% and 86.9% and 85.1%, the viability, T/C (compound 0.1 µM) was 60.1% and 60.5% and 89.2% and the viability, T/C (compound 0.316 µM) was 48.5% and 51.9% and 44.8%. The viability, T/C (compound 1 µM) was 31.2% and 30.2% and 27.1%, the viability, T/C (compound 3.16 µM) was 2.58% and 1.68% and 2.6% and the viability, T/C (compound 10 µM) was 11.1% and 13.1% and 12.4%. The IC50 (curve of compound) was 286 nM and 257 nM and 320 nM.

With CCc1cc2c(N3CCc4c(cc(Cn5ccnc5)cc4-c4cn(C)nc4C(F)(F)F)C3=O)ccnc2c(OC)n1 + COC1C(OC(N)=O)C(O)C(Oc2ccc3c(O)c(NC(=O)c4ccc(O)c(CC=C(C)C)c4)c(=O)oc3c2C)OC1(C)C the IC50 [1] was greater than 10000 nM, the IC50 [2] was greater than 10000 nM and the IC50 [3] was greater than 10000 nM. It also gave an IC50 [4] greater than 10000 nM, an IC50 [5] greater than 10000 nM and an IC50 [6] greater than 10000 nM. For the same compound, the viability, T/C [7] was 82.1%, the viability, T/C [8] was 102% and the viability, T/C (second compound 0.0316 µM, first compound 0.316 µM) was 95.5%. The viability, T/C (second compound 0.0316 µM, first compound 1 µM) was 107%, the viability, T/C (second compound 0.0316 µM, first compound 3.16 µM) was 104% and the viability, T/C (second compound 0.0316 µM, first compound 10 µM) was 97.3%. It also gave a viability, T/C [9] of 91.7%, a viability, T/C [10] of 89.8% and a viability, T/C (second compound 0.1 µM, first compound 0.316 µM) of 87.4%. For the same compound, the viability, T/C (second compound 0.1 µM, first compound 1 µM) was 87.6%, the viability, T/C (second compound 0.1 µM, first compound 3.16 µM) was 109% and the viability, T/C (second compound 0.1 µM, first compound 10 µM) was 96.4%. For the same compound, the viability, T/C [11] was 88.2%, the viability, T/C [12] was 89.8% and the viability, T/C (second compound 0.316 µM, first compound 0.316 µM) was 99.9%. For the same compound, the viability, T/C (second compound 0.316 µM, first compound 1 µM) was 99%, the viability, T/C (second compound 0.316 µM, first compound 3.16 µM) was 105% and the viability, T/C (second compound 0.316 µM, first compound 10 µM) was 97%. It also gave a viability, T/C [13] of 97.1%, a viability, T/C [14] of 85% and a viability, T/C (second compound 1 µM, first compound 0.316 µM) of 90.4%. It also gave a viability, T/C (second compound 1 µM, first compound 1 µM) of 112%, a viability, T/C (second compound 1 µM, first compound 3.16 µM) of 101% and a viability, T/C (second compound 1 µM, first compound 10 µM) of 91.9%. It also gave a viability, T/C [15] of 86.7%, a viability, T/C [16] of 91.4% and a viability, T/C (second compound 3.16 µM, first compound 0.316 µM) of 89.6%. The viability, T/C (second compound 3.16 µM, first compound 1 µM) was 96%, the viability, T/C (second compound 3.16 µM, first compound 3.16 µM) was 98.4% and the viability, T/C (second compound 3.16 µM, first compound 10 µM) was 93.9%. It also gave a viability, T/C [17] of 105%, a viability, T/C [18] of 80.6% and a viability, T/C (second compound 10 µM, first compound 0.316 µM) of 85.3%. For the same compound, the viability, T/C (second compound 10 µM, first compound 1 µM) was 101%, the viability, T/C (second compound 10 µM, first compound 3.16 µM) was 102% and the viability, T/C (second compound 10 µM, first compound 10 µM) was 101%.
